# Test results reported in patent publication US10066272B2, “Human homeobox gene ventx and macrophage terminal differentiation and activation, compositions and methods thereof” (priority 2011, dated 2018).
# System: primary monocytes
# Test: Monocyte to macrophage differentiation after siRNA transfection, surface markers by FACS
# Format: cell-based, human
# Description: (A) knockdown of VentX expression in primary monocytes by RNA interference. Monocytes were transfected with siRNA against GFP or VentX through electroporation. VentX mRNA levels were determined by real time PCR at 3 days after transfection (left); VentX protein level was determined by western blotting at 4 days after transfection (right). (B) Effects of VentX knockdown on macrophage morphogenesis during M-CSF induced differentiation. Monocytes were transfected with either siGFP or siVentX and subsequently exposed to 100 ng/mL M-CSF. […] Magnification of photographs, ×200. Note: a portion of cells lost their original morphology during Wright-Giemsa staining procedure. (C) Effects of VentX knockdown on macrophage surface expression of CD71. […] Filled blue histogram represents the isotope control staining; red histogram represents monocytes transfected with siGFP; green histogram represents monocytes transfected with siVentX. (D) Bar graphs show mean+SD of 6 different experiments in (C). Paired t test was used to reveal the statistical significance. **p<0.01.
# (A) Left panel: Flow cytometry analysis of indicated surface markers in monocytes transfected with siGFP or siVentX, respectively; right panel: bar graphs show the mean+SD of at least three separate experiments. *p<0.05; **p<0.01. (B) Effects of VentX knockdown on macrophage viability. Monocytes were transfected with either siGFP or siVentX and subsequently exposed to 100 ng/mL M-CSF for 3 days. Cells were then harvested and stained with PI and Annexin V and analyzed by flow cytometry. (C) Effects of VentX knockdown on phagocytosis. Monocytes were transfected with siGFP or siVentX. Phagocytosis assays were carried out as described in materials and methods. […]
# Surface expression of CD71 was determined by FACS analysis at 4 days after siRNA transfection. […]
# Peripheral blood mononuclear cells (PBMC) from healthy adult donors at Children's Hospital Boston were isolated by Ficoll density gradient centrifugation. […] The purity of freshly isolated CD14^+ monocytes was more than 95% as analyzed by flow cytometry. […]
substance,measurement,setting,value
"siVentX: VentX siRNA, forward 5′-UUCAGAAUCGCCGCAUGAAACACAAACGG-3′ (SEQ ID NO:4), reverse SEQ ID NO:5 (antisense CCGUUUGUGUUUCAUGCGGCGAUUCUGAA; listed as RNA, chemistry not given here)",macrophage differentiation by GM-CSF or IL3,"monocytes, 100 ng/mL GM-CSF or IL3, CD71 at 4 days (FIG. 15)",blocked macrophage differentiation
same,"expression of macrophage phenotypic markers CD64, CD40, CD86, CD11b and CD11c","transfected monocytes, M-CSF, compared with siGFP transfected control cells (FIG. 3A)",significantly down-regulated
